Measured values taken from patent US20040096455A1, “Transdermal vaccine delivery device having coated microprotrusions” (priority 2002, published 2004).
Where two headings read alike, the source gives them in different places.

Assays:
[1] = target: T1, ovalbumin (Gallus gallus, UniProt P01012); test: Solubilization of 0.5 wt % ovalbumin solution by surfactants; format: physicochemical
T1 sequence (P01012 1-386): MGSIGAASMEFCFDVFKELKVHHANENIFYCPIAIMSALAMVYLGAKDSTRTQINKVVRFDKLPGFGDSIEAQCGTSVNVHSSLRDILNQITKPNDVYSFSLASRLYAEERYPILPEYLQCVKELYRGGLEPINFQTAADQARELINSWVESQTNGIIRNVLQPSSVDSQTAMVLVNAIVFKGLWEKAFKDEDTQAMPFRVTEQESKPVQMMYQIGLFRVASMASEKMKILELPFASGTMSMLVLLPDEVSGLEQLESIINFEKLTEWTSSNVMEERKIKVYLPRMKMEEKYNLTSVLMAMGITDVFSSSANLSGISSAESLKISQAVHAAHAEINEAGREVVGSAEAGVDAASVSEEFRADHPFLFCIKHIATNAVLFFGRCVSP
Description: Other surfactants and concentrations were test against a solution 0.5 wt % ovalbumin.

[2] = system: monovalent "split-varion" influenza vaccine (A/Panama/2007/99, H3N2); format: physicochemical, influenza virus
[3] = 0.5 wt % ovalbumin, Surfactant Concentration 0.0085 M
[4] = 0.5 wt % ovalbumin, Surfactant Concentration 0.017 M
[5] = 0.5 wt % ovalbumin, Surfactant Concentration 0.035 M
[6] = 0.5 wt % ovalbumin, Surfactant Concentration 0.052 M
[7] = 0.5 wt % ovalbumin, Surfactant Concentration 0.069 M

CCCCCCCCCCCCCCOS(=O)(=O)[O-].[Na+] [Sodium tetradecylsulfate]
complete solubilization of ovalbumin solution [1]: −

CCCCCCCCCCCCCCCCCCOS(=O)(=O)[O-].[Na+] [Sodium octadecylsulfate]
complete solubilization of ovalbumin solution [1]: −

CCCCCCCCCCCCCC[N+](C)(C)CCCS(=O)(=O)[O-] [Zwittergent 3-14]
Turbidity @ 340 nanometers (200 μg/ml) [2]: 0.070

CCCCCCCCOS(=O)(=O)[O-].[Na+] [Sodium octylsulfate]
complete solubilization of ovalbumin solution [1]: −

CCCCCCCCCCCC[N+](C)(C)C.[Br-] [Dodecyltrimethylammonium Br]
complete solubilization of ovalbumin solution [1, 3]: −
complete solubilization of ovalbumin solution [1, 4]: −
complete solubilization of ovalbumin solution [1, 5]: −
complete solubilization of ovalbumin solution [1, 6]: −
complete solubilization of ovalbumin solution [1, 7]: −

CCCCCCCCCCCC[N+](C)(C)CCCS(=O)(=O)[O-] [Zwittergent 3-12]
Turbidity @ 340 nanometers (200 μg/ml) [2]: 0.087

CCCCCCCCCCCC(=O)[O-].[Na+] [Sodium laurate]
complete solubilization of ovalbumin solution [1, 3]: −
complete solubilization of ovalbumin solution [1, 4]: −
complete solubilization of ovalbumin solution [1, 5]: +
complete solubilization of ovalbumin solution [1, 6]: +
complete solubilization of ovalbumin solution [1, 7]: +

CCCCCCCCCC[N+](C)(C)CCCS(=O)(=O)[O-] [Zwittergent 3-10]
Turbidity @ 340 nanometers (200 μg/ml) [2]: 0.120
